According to patent publication US10363257B2 (ZENITH EPIGENETICS LTD., priority 2013, dated 2019):

How the values were obtained:
[1] = biological target: T1, Brd4 bromodomain 1 (BRD4(1)) (Homo sapiens, UniProt O60885); test: Inhibition of tetra-acetylated histone H4 binding to Brd4 bromodomain 1 (TR-FRET); settings: tetra-acetylated histone H4 peptide, first bromodomain of Brd4
T1 construct: made in house; host or cells: E. coli BL21(DE3)
Description: Proteins were cloned and overexpressed with a N-terminal 6× His tag, then purified by nickel affinity followed by size exclusion chromatography. Briefly, E.coli BL21(DE3) cells were transformed with a recombinant expression vector encoding N-terminally Nickel affinity tagged bromodomains from Brd2, Brd3, Brd4. Cell cultures were incubated at 37° C. with shaking to the appropriate density and induced overnight with IPTG. The supernatant of lysed cells was loaded onto Ni-IDA column for purification. Eluted protein was pooled, concentrated and further purified by size exclusion chromatography. Fractions representing monomeric protein were pooled, concentrated, aliquoted, and frozen at −80° C. for use in subsequent experiments.
Binding of tetra-acetylated histone H4 and BET bromodomains was confirmed by a Time Resolved Fluorescence Resonance Energy Transfer (TR-FRET) method. N-terminally His-tagged bromodomains (200 nM) and biotinylated tetra-acetylated histone H4 peptide (25-50 nM, Millipore) were incubated in the presence of Europium Cryptate-labeled streptavidin (Cisbio Cat. #610SAKLB) and XL665-labeled monoclonal anti-His antibody (Cisbio Cat. #61HISXLB) in a white 96 well microtiter plate (Greiner). For inhibition assays, serially diluted test compound was added to these reactions in a 0.2% final concentration of DMSO. Final buffer concentrations were 30 mM HEPES pH 7.4, 30 mM NaCl, 0.3 mM CHAPS, 20 mM phosphate pH 7.0, 320 mM KF, 0.08% BSA). After a 2-h incubation at room temperature, the fluorescence by FRET was measured at 665 and 620 nm by a SynergyH4 plate reader (Biotek). The binding inhibitory activity was shown by a decrease in 665 nm fluorescence relative to 620 nm. IC50 values were determined from a dose response curve.

human AML MV-4-11 cells = test: Inhibition of cell proliferation in MV4-11 cells (CellTiter Aqueous One); assay type: cell-based; settings: 72 h
Description: MV4-11 cells: 96-well plates were seeded with 5×10^4 cells per well of exponentially growing human AML MV-4-11 (CRL-9591) cells and immediately treated with two-fold dilutions of test compounds, ranging from 30 μM to 0.2 μM. Triplicate wells were used for each concentration, as well as a media only and three DMSO control wells. The cells and compounds were incubated at 37° C., 5% CO2 for 72 h before adding 20 μL of the CellTiter Aqueous One Solution (Promega) to each well and incubating at 37° C., 5% CO2 for an additional 3-4 h. The absorbance was taken at 490 nm in a spectrophotometer and the percentage of proliferation relative to DMSO-treated cells was calculated after correction from the blank well. IC50 were calculated using the GraphPad Prism software.

SMILES	IC50 [1] [nM]	Cell Proliferation activity (human AML MV-4-11 cells)
Cc1noc(C)c1-c1cnc2nc(Oc3cccnc3)n(Cc3ccccc3)c2c1 [compound 236, 4-(1-benzyl-2-(pyridin-3-yloxy)-1H-imidazo[4,5-b]pyridin-6-yl)-3,5-dimethylisoxazole]	≤ 300	
Cn1nccc1-c1ccc2c(c1)N(Cc1ccccc1)CC(=O)N2 [compound 166, 4-benzyl-6-(1-methyl-1H-pyrazol-5-yl)-3,4-dihydroquinoxalin-2(1H)-one]	300 to 3000	
Cc1noc(C)c1-c1cc2c([nH]c1=O)c(C)nn2Cc1ccc(F)cc1 [Example Compound 25, 6-(3,5-dimethylisoxazol-4-yl)-1-(4-fluorobenzyl)-3-methyl-1H-pyrazolo[4,3-b]pyridin-5(4H)-one]	3000 to 30000	Not active
Cc1noc(C)c1-c1cc([N+](=O)[O-])c2[nH]c(=O)n([C@H](C)c3ccccc3)c2c1 [compound 240, (R)-6-(3,5-dimethylisoxazol-4-yl)-4-nitro-1-(1-phenylethyl)-1H-benzo[d]imidazol-2(3H)-one]	≤ 300	
Cc1noc(C)c1-c1cnc2nc(NCc3cnccn3)n(Cc3ccccc3)c2c1 [compound 229, 1-benzyl-6-(3,5-dimethylisoxazol-4-yl)-N-(pyrazin-2-ylmethyl)-1H-imidazo[4,5-b]pyridin-2-amine]	≤ 300	
Cc1noc(C)c1-c1cnc2nc(NCC(C)(C)O)n(Cc3ccccc3)c2c1 [compound 237, 1-((1-benzyl-6-(3,5-dimethylisoxazol-4-yl)-1H-imidazo[4,5-b]pyridin-2-yl)amino)-2-methylpropan-2-ol]	≤ 300	
CNc1nc2ncc(-c3c(C)noc3C)cc2n1Cc1ccc(Cl)cc1 [compound 233, 1-(4-chlorobenzyl)-6-(3,5-dimethylisoxazol-4-yl)-N-methyl-1H-imidazo[4,5-b]pyridin-2-amine]	≤ 300	
COC(=O)c1cc(-c2c(C)noc2C)cc2c1[nH]c(=O)n2Cc1ccccc1 [Example Compound 20, methyl 1-benzyl-6-(3,5-dimethylisoxazol-4-yl)-2-oxo-2,3-dihydro-1H-benzo[d]imidazole-4-carboxylate]	≤ 300	Not active
Cc1noc(C)c1-c1cnc2[nH]c(=O)n(Cc3ccc(Cl)c(Cl)c3)c2c1 [compound 101, 1-(3,4-dichlorobenzyl)-6-(3,5-dimethylisoxazol-4-yl)-1H-imidazo[4,5-b]pyridin-2(3H)-one]	300 to 3000	
Cc1nn(C)c(C)c1-c1cc(N)c2nc(C)n(Cc3ccccc3)c2c1 [compound 184, 1-benzyl-2-methyl-6-(1,3,5-trimethyl-1H-pyrazol-4-yl)-1H-benzo[d]imidazol-4-amine]	3000 to 30000	
Cc1noc(C)c1-c1cc2c(ncn2Cc2ccc(F)cc2)[n+]([O-])c1 [compound 79, 6-(3,5-dimethylisoxazol-4-yl)-1-(4-fluorobenzyl)-1H-imidazo[4,5-b]pyridine 4-oxide]		Not active
Cc1noc(C)c1-c1cnc2[nH]c(=O)n(Cc3ccc(F)cc3)c2c1 [compound 228, 6-(3,5-dimethylisoxazol-4-yl)-1-(4-fluorobenzyl)-1H-imidazo[4,5-b]pyridin-2(3H)-one]	≤ 300	
CC(=O)Oc1nc2ncn(Cc3ccc(F)cc3)c2cc1-c1c(C)noc1C [compound 80, 6-(3,5-dimethylisoxazol-4-yl)-1-(4-fluorobenzyl)-1H-imidazo[4,5-b]pyridin-5-yl acetate]	300 to 3000	Not active
Cn1nccc1-c1cnc2nc(N3CCOCC3)n(Cc3ccccc3)c2c1 [compound 175, 4-(1-benzyl-6-(1-methyl-1H-pyrazol-5-yl)-1H-imidazo[4,5-b]pyridin-2-yl)morpholine]	300 to 3000	
Cc1noc(C)c1-c1cnc2nc(NCC3CCCCC3)n(Cc3ccccc3)c2c1 [compound 225, 1-benzyl-N-(cyclohexylmethyl)-6-(3,5-dimethylisoxazol-4-yl)-1H-imidazo[4,5-b]pyridin-2-amine]	≤ 300	
Cc1noc(C)c1-c1cc([N+](=O)[O-])c2nc(NCc3ccccc3)n(Cc3ccccc3)c2c1 [compound 147, N,1-dibenzyl-6-(3,5-dimethylisoxazol-4-yl)-4-nitro-1H-benzo[d]imidazol-2-amine]	≤ 300	

SMILES	IC50 [1] [nM]	Cell Proliferation activity (human AML MV-4-11 cells)
Cc1noc(C)c1-c1cc(Br)c2nc(C)n(CCOc3ccccc3)c2c1 [compound 189, 4-(4-bromo-2-methyl-1-(2-phenoxyethyl)-1H-benzo[d]imidazol-6-yl)-3,5-dimethylisoxazole]	300 to 3000	
Cc1noc(C)c1-c1cnc2nc(NC3COC3)n(Cc3ccccc3)c2c1 [compound 227, 1-benzyl-6-(3,5-dimethylisoxazol-4-yl)-N-(oxetan-3-yl)-1H-imidazo[4,5-b]pyridin-2-amine]	≤ 300	
Cc1noc(C)c1-c1cnc2nc(NC3CCCCC3)n(Cc3ccccc3)c2c1 [compound 234, 1-benzyl-N-cyclohexyl-6-(3,5-dimethylisoxazol-4-yl)-1H-imidazo[4,5-b]pyridin-2-amine]	≤ 300	
COCCCNc1nc2ncc(-c3c(C)noc3C)cc2n1Cc1ccccc1 [compound 226, 1-benzyl-6-(3,5-dimethylisoxazol-4-yl)-N-(3-methoxypropyl)-1H-imidazo[4,5-b]pyridin-2-amine]	≤ 300	
CC(=O)Nc1cc(-c2ccnn2C)cc2c1n(C)c(=O)n2Cc1ccccc1 [compound 204, N-(1-benzyl-3-methyl-6-(1-methyl-1H-pyrazol-5-yl)-2-oxo-2,3-dihydro-1H-benzo[d]imidazol-4-yl)acetamide]	300 to 3000	
Cc1noc(C)c1-c1cc(Br)c2c(c1)nc(C)n2CCCc1ccccc1 [compound 188, 4-(7-bromo-2-methyl-1-(3-phenylpropyl)-1H-benzo[d]imidazol-5-yl)-3,5-dimethylisoxazole]	3000 to 30000	
Cc1noc(C)c1-c1cnc2nc(NC3CCN(C)CC3)n(Cc3ccccc3)c2c1 [compound 235, 1-benzyl-6-(3,5-dimethylisoxazol-4-yl)-N-(1-methylpiperidin-4-yl)-1H-imidazo[4,5-b]pyridin-2-amine]	≤ 300	
CNc1nc2ncc(-c3c(C)noc3C)cc2n1Cc1ccc(F)cc1 [compound 232, 6-(3,5-dimethylisoxazol-4-yl)-1-(4-fluorobenzyl)-N-methyl-1H-imidazo[4,5-b]pyridin-2-amine]	≤ 300	
Cc1noc(C)c1-c1cnc2nc(NCCN3CCCC3)n(Cc3ccccc3)c2c1 [compound 238, 1-benzyl-6-(3,5-dimethylisoxazol-4-yl)-N-(2-(pyrrolidin-1-yl)ethyl)-1H-imidazo[4,5-b]pyridin-2-amine]	≤ 300	
COc1c(-c2c(C)noc2C)ccc2nc(C(F)(F)F)n(Cc3ccccc3)c12 [compound 241, 4-(1-benzyl-7-methoxy-2-(trifluoromethyl)-1H-benzo[d]imidazol-6-yl)-3,5-dimethylisoxazole]	300 to 3000	
Cc1noc(C)c1-c1cnc2nc(NCCN3CCN(C)CC3)n(Cc3ccccc3)c2c1 [compound 231, 1-benzyl-6-(3,5-dimethylisoxazol-4-yl)-N-(2-(4-methylpiperazin-1-yl)ethyl)-1H-imidazo[4,5-b]pyridin-2-amine]	≤ 300	
Cc1noc(C)c1-c1cc(Br)c2c(c1)nc(C)n2CCOc1ccccc1 [compound 190, 4-(7-bromo-2-methyl-1-(2-phenoxyethyl)-1H-benzo[d]imidazol-5-yl)-3,5-dimethylisoxazole]	300 to 3000	
Cc1noc(C)c1-c1cc(Br)c2nc(C)n(CCCc3ccccc3)c2c1 [compound 187, 4-(4-bromo-2-methyl-1-(3-phenylpropyl)-1H-benzo[d]imidazol-6-yl)-3,5-dimethylisoxazole]	300 to 3000	
Cc1noc(C)c1-c1cnc2nc(NCC3CCOCC3)n(Cc3ccccc3)c2c1 [compound 230, 1-benzyl-6-(3,5-dimethylisoxazol-4-yl)-N-((tetrahydro-2H-pyran-4-yl)methyl)-1H-imidazo[4,5-b]pyridin-2-amine]	≤ 300	
Cc1noc(C)c1-c1cnc2nc(NCCN3CCCCC3)n(Cc3ccccc3)c2c1 [compound 239, 1-benzyl-6-(3,5-dimethylisoxazol-4-yl)-N-(2-(piperidin-1-yl)ethyl)-1H-imidazo[4,5-b]pyridin-2-amine]	≤ 300	
Cc1noc(C)c1-c1cnc2nc(NC3CCC(N)CC3)n(Cc3ccccc3)c2c1 (centres unmarked) [compound 224, N1-(1-benzyl-6-(3,5-dimethylisoxazol-4-yl)-1H-imidazo[4,5-b]pyridin-2-yl)cyclohexane-1,4-diamine]	≤ 300	
